Laboratory results reported in ChEMBL document CHEMBL5236576, “Discovery of a potent M5 antagonist with improved clearance profile. Part 2: Pyrrolidine amide-based antagonists” (Bioorg Med Chem Lett, 2022).
The source made the active and inactive calls. The rule behind the calls is not given here.

Tests used:
[1] = target: T1, Muscarinic acetylcholine receptor M5 (Homo sapiens, UniProt P08912); assay: (§1) Antagonist activity at human muscarinic M5 receptor expressed in CHO cells in the presence of acetylcholine by calcium mobilisation assay; type: cell-based
T1 sequence (P08912 whole entry): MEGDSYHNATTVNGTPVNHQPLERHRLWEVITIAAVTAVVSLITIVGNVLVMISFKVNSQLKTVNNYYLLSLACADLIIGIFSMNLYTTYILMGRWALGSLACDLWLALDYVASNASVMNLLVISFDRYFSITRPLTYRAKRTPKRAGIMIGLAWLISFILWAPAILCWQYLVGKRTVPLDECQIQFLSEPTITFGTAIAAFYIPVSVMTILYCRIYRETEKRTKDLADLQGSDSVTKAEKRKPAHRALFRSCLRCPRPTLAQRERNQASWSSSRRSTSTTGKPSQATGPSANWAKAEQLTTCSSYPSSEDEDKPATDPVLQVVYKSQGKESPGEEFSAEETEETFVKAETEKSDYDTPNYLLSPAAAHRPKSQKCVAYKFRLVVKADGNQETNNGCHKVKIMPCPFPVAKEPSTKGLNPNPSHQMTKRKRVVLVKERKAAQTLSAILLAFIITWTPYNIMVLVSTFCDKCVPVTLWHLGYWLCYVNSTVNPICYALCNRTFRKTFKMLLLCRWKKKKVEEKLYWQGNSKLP

[2] = Lipophilicity, logD of the compound at pH 7.4; type: physicochemical; conditions: buffer
[3] = Intrinsic clearance in rat; type: ADME
[4] = target: T2, Muscarinic acetylcholine receptor M5 (Homo sapiens) (UniProt P08912); assay: Antagonist activity at human muscarinic M5 receptor expressed in CHO cells assessed as minimal acetylcholine response by calcium mobilisation assay relative to control; type: cell-based; parameters: concentration or dose not given beside the values
T2 sequence (whole entry): T1 sequence (P08912 whole entry)

[5] = Intrinsic clearance in human; type: ADME
[6] = target: T3, Muscarinic acetylcholine receptor M5 (Rattus norvegicus) (UniProt P08911); assay: Antagonist activity at rat muscarinic M5 receptor expressed in CHO cells assessed as minimal acetylcholine response by calcium mobilisation assay relative to control; type: cell-based; parameters: scale not given: the % may be the effect or the level left; conditions: filed as antagonist
T3 sequence (whole entry): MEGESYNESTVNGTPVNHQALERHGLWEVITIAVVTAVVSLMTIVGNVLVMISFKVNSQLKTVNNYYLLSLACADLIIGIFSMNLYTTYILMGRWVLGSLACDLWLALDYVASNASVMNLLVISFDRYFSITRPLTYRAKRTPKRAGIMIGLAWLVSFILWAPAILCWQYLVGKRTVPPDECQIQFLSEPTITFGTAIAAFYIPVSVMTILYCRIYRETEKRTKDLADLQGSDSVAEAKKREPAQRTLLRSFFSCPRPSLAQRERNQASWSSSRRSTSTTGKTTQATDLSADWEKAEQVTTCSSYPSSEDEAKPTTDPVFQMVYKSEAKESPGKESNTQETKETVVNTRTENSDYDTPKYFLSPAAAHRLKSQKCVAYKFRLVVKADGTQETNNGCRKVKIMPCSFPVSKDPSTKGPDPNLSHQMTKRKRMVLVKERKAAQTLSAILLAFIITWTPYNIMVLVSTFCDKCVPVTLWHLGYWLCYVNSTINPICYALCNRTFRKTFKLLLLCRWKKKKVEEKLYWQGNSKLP

[7] = target: T4, Muscarinic acetylcholine receptor M1 (Homo sapiens) (UniProt P11229); assay: Antagonist activity at human muscarinic M1 receptor expressed in CHO cells assessed as minimal acetylcholine response by calcium mobilisation assay relative to control; type: cell-based; parameters: scale not given: the % may be the effect or the level left; conditions: filed as antagonist
T4 sequence (whole entry): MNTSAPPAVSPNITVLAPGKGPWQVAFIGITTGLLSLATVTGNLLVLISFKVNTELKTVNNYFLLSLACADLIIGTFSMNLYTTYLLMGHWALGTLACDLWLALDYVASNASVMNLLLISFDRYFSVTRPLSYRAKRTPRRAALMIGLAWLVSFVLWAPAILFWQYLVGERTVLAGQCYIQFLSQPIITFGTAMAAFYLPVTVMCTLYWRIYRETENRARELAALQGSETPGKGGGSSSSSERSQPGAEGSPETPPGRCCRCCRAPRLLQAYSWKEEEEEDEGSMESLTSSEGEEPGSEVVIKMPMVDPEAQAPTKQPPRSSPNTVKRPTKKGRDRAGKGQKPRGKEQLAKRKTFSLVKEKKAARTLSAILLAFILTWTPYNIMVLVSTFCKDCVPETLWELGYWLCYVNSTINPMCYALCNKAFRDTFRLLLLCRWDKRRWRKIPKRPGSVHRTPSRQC

[8] = Unbound fraction in rat brain; type: ADME, tissue-based
[9] = Unbound fraction in rat plasma; type: ADME, cell-free
[10] = Unbound fraction in human plasma; type: ADME, cell-free
[11] = target: T5, Muscarinic acetylcholine receptor M1 (Homo sapiens, UniProt P11229); assay: Antagonist activity at human muscarinic M1 receptor expressed in CHO cells in the presence of acetylcholine by calcium mobilisation assay; type: cell-based
T5 sequence (P11229 whole entry): T4 sequence (whole entry)

[12] = target: T6, Muscarinic acetylcholine receptor M4 (Homo sapiens, UniProt P08173); assay: Antagonist activity at human muscarinic M4 receptor expressed in CHO cells in the presence of acetylcholine by calcium mobilisation assay; type: cell-based
T6 sequence (P08173 whole entry): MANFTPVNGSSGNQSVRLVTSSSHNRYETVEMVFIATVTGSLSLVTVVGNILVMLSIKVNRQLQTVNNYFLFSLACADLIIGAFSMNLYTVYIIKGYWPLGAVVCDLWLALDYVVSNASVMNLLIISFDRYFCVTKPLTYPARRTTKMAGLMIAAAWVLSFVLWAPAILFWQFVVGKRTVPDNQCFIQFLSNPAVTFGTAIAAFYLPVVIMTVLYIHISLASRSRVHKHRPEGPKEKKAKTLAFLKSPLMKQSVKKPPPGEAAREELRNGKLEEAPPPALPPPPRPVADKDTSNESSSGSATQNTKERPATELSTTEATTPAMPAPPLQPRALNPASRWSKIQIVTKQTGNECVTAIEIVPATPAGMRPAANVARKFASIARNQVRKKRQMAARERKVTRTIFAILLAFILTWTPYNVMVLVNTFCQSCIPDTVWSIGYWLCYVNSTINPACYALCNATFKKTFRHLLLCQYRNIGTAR

[13] = Apparent permeability in MDCK-MDR1 cells; type: ADME, cell-based, Canis lupus familiaris; conditions: dog
P-glycoprotein = assay: Efflux ratio of permeability in MDCK-MDR1 cells expressing P-glycoprotein; type: ADME, cell-based, Canis lupus familiaris; conditions: dog
[14] = target: T7, Muscarinic acetylcholine receptor M5 (Rattus norvegicus, UniProt P08911); assay: Antagonist activity at rat muscarinic M5 receptor expressed in CHO cells in the presence of acetylcholine by calcium mobilisation assay; type: cell-based
T7 sequence (P08911 whole entry): T3 sequence (whole entry)

[15] = target: T2, Muscarinic acetylcholine receptor M5 (Homo sapiens); assay: Potency index, ratio of VU6027831 IC50 to test compound IC50 for antagonist activity at human M5 muscarinic receptor
[16] = target: T3, Muscarinic acetylcholine receptor M5 (Rattus norvegicus); assay: Antagonist activity at rat muscarinic M5 receptor assessed as minimal acetylcholine response relative to control; parameters: scale not given: the % may be the effect or the level left; conditions: filed as antagonist
[17] = target: T2, Muscarinic acetylcholine receptor M5 (Homo sapiens); assay: as §1; type: cell-based

| Compound | IC50 [1] [nM] | logD [2] | CLint scaled [3] [mL/min/kg] | Activity ([4]; filed as antagonist) [%] | CLint scaled [5] [mL/min/kg] | further results |
| --- | --- | --- | --- | --- | --- | --- |
| C[C@@H]1CN(S(=O)(=O)c2ccc3c(c2)CCO3)C[C@@H]1C(=O)Nc1ccc2scnc2c1 | 35 | 2.88 | 769 | 3 | 202 |  |
| C[C@H]1CN(S(=O)(=O)c2ccc3c(c2)CCO3)C[C@@H]1C(=O)Nc1ccc2scnc2c1 | 87 | 2.94 | 51 | 2 | 5 | Activity [6]: 2%; Activity [7]: 8%; fraction unbound [8]: 0.05; Fu [9]: 0.01; Fu [10]: 0.03; IC50 [11]: > 10000 nM; IC50 [12]: > 10000 nM; Papp [13]: 1.75 10^-6 cm/s; efflux ratio (P-glycoprotein): 32.3; IC50 [14]: 190 nM |
| O=C(Nc1ccc2scnc2c1)[C@@H]1CCN(S(=O)(=O)c2ccc3c(c2)CCO3)C1 | 21 | 2.53 | 356 | 2 | 50.6 | Activity ([4]; filed as antagonist, tested as the 2H-labelled form): 2% |
| O=C(Nc1ccc2scnc2c1)C1CN(S(=O)(=O)c2ccc3c(c2)CCO3)C1 |  |  | 301 | 2 | 61 |  |
| O=C(Nc1ccc2scnc2c1)C1CCN(S(=O)(=O)c2ccc3c(c2)CCO3)C1 (stereo unspecified) | 47 |  | 252 | 2 | 72 | Ratio IC50 [15]: 2 |
| O=C(Nc1ccc2scnc2c1)C1CCN(S(=O)(=O)c2ccc3c(c2)CCO3)CC1 |  |  |  |  |  | Activity [16]: 3% |
| O=C(Nc1ccc2scnc2c1)[C@@H]1CCN(S(=O)(=O)c2ccc3c(c2)CCC3)C1 |  | 3.54 |  | 31 |  |  |
| Cc1ccc(S(=O)(=O)N2CC[C@@H](C(=O)Nc3ccc4scnc4c3)C2)cn1 | > 10000 | 1.85 |  | 41 |  |  |
| O=C(Nc1ccc2scnc2c1)[C@@H]1CCN(S(=O)(=O)c2cccnc2)C1 |  | 1.65 |  |  |  | Activity [17]: inactive |
| [2H]C1([2H])Oc2ccc(S(=O)(=O)N3CC[C@@H](C(=O)Nc4ccc5scnc5c4)C3)cc2C1([2H])[2H] |  | 2.45 | 168 |  | 50 |  |
| O=C(Nc1ccc2scnc2c1)[C@@H]1CCN(S(=O)(=O)c2ccc3ncsc3c2)C1 |  | 2.04 | 51 | 2 | 33 | Activity [6]: 4%; fraction unbound [8]: 0.08; Fu [9]: 0.01; Fu [10]: 0.12; IC50 [14]: 550 nM |
| O=C(Nc1ccc2scnc2c1)[C@@H]1CCN(S(=O)(=O)c2ccc3ncccc3c2)C1 |  | 1.99 | 191 | 3 | 42 |  |
| Cn1cc(S(=O)(=O)N2CC[C@@H](C(=O)Nc3ccc4scnc4c3)C2)c(C(F)(F)F)n1 | > 10000 | 2.62 |  |  |  | Activity [4]: 59% |
| O=C(Nc1ccc2scnc2c1)C12CC1CN(S(=O)(=O)c1ccc3c(c1)CCO3)C2 (racemic) | 270 | 2.88 | 396 | 2 | 115 |  |
| O=C(Nc1ccc2scnc2c1)[C@@H]1CCN(S(=O)(=O)c2ccc(Cl)nc2)C1 |  | 2.41 |  |  |  | Activity [17]: inactive |
| O=C(Nc1ccc2scnc2c1)[C@H]1CN(S(=O)(=O)c2ccc3c(c2)CCO3)C[C@@H]1C(F)(F)F |  | 3.65 |  |  |  | Activity [17]: inactive |
| O=C(Nc1ccc2scnc2c1)[C@@H]1CCN(S(=O)(=O)c2ccc3c(c2)OCO3)C1 |  | 2.43 | 267 | 3 | 30 |  |
| O=C(Nc1ccc2scnc2c1)[C@H]1CCN(S(=O)(=O)c2ccc3c(c2)CCO3)C1 | 440 | 2.51 | 201 | 3 | 64 |  |
| Cc1nn(C)cc1S(=O)(=O)N1CC[C@@H](C(=O)Nc2ccc3scnc3c2)C1 |  | 1.62 |  | 6 |  |  |
